# US20140045809A1, “CORROLES FOR NEUROPROTECTION AND NEURORESCUE” (priority 2008, published 2014)
# Entries after “also recorded” stand apart in the source; their conditions may differ.
# Experiments:
# SH-SY5Y cells = test: Cellular uptake of fluorescent corrole, fluorescence microscopy, SH-SY5Y cells; format: cell-based, human; conditions: 20 μM, half an hour at 37° C.
# Excerpt: (§1) For testing cellular membrane penetration, as well as uptake and accumulation of corroles in the cells, we took advantage of the fluorescence property of an appropriate corrole. For this purpose we used a fluorescent corrole complex (1C-Ga) that is structurally identical to the catalytic compounds utilized in the cytoprotection/cytorescue experiments, except that the chelated metal is gallium(III) rather than iron(III) in 1C-Fe or manganese(III) in 1C-Mn. The results are shown in FIGS. 21A-D for RIN-m (insulinoma) cell line and FIGS. 22A-D for SH-SY5Y (neuroblastoma) cell line.
# (§2) To visualize intracellular corrole we used fluorescence microscopy. Neuroblastoma SH-SY5Y cells and insulinoma RIN-m cells were plated on coverslips. At 24 h after plating, corrole 1C-Ga was added directly to the cell media and incubated for half an hour at 37° C. The cells were then aspirated from the media and washed with phosphate buffer to eliminate background signal due to extra cellular corrole. Fixation with formaldehyde was performed. Coverslips with mounting medium (with DAPI) were directly placed on slides and viewed by fluorescence microscopy; the results are shown in FIGS. 21, 22.
# RIN-m cells = test: Cellular uptake of fluorescent corrole, fluorescence microscopy, RIN-m cells; format: cell-based; conditions: 20 μM, half an hour at 37° C.
# Excerpt: as §1, §2
# [1] = In-vivo fluorescence imaging of corrole in nude mice (IVIS 200); conditions: 19 mg/kg i.p., 30 min after injection
# Procedure: For obtaining information about in-vivo localization and distribution of the various corroles that have sulfonic acid head groups, in-vivo imaging of corroles in whole animals was performed. Of particular interest was to examine whether the leading corrole compounds unlike most porphyrins are able to cross the blood brain barrier (BBB).
# The in vivo imaging experiments were performed as follows. Nude mice received i.p. injections of the fluorescent gallium(III) corrole 1C-Ga and were examined by IVIS 200 imaging system [Xenogen].
substance,measurement,setting,value
"2,17-bis(sulfonato)-5,10,15-tris(pentafluorophenyl)-corrolato galium(III) [1C-Ga]",cellular uptake and accumulation,SH-SY5Y cells,accumulation inside the cells
same,cellular uptake and accumulation,RIN-m cells,accumulation inside the cells
same,BBB penetration / accumulation in brain area,[1],possible BBB penetration and accumulation of the corrole complex in brain area; also recorded: indicative of the crossing of the blood brain barrier (BBB)
